# Results taken from article PMC4626215, “Esculentin-2CHa-Related Peptides Modulate Islet Cell Function and Improve Glucose Tolerance in Mice with Diet-Induced Obesity and Insulin Resistance” (PLoS ONE, 2015).
# Bridges are numbered along the chain shown (N, C = ends). Where no end group is shown, it is not given here.
# Experiments:
# [1] = test system: high fat fed mice; assay: Acute in vivo glucose tolerance and insulin release; set-up: species or system mouse
# Procedure: (§1) Male National Institutes of Health (NIH) Swiss mice (Harlan Ltd, UK) were housed separately in an air-conditioned room (22 ± 2°C) with relative humidity of 51 ± 5% and a 12-hour light: 12-hour dark cycle and maintained on a high fat diet containing 45% fat, 20% protein and 35% carbohydrate (total energy 19.5 kJ/g, Dietex International Ltd, Witham, UK) for 120 days. Mice maintained on standard rodent diet containing 10% fat, 30% protein and 60% carbohydrates (total energy 12.99 kJ/g) were used as controls. Both groups of animals were allowed food and water ad libitum. All animal experiments were carried out in accordance with the UK Animals (Scientific Procedures) Act 1986 and EU Directive 2010/63EU for animal experiments. The study was approved by University of Ulster Research Ethics Committee.
# For acute in vivo studies, overnight fasted, high fat fed mice (n = 8) received an intraperitoneal injection of glucose alone (18 mmol/kg body weight) or in combination with esculentin-2CHa or its analogues (75 nmol/kg body weight). This peptide dose was selected on the basis of a pilot study that examined acute effects of different doses of esculentin-2CHa on glucose tolerance in lean mice. Blood samples were collected as described previously before injection and at times indicated in the Figures for the measurement of plasma glucose and insulin concentrations.
# (§2) Pancreatic tissues were homogenized in 20 mM Tris-HCl, 150 mM NaCl, 1 mM EDTA, 1 mM EGTA and 0.5% Triton X 100; pH 7.5 as previously described. Blood samples (approximately 150 μl), collected from the cut tip of the tail vein of unanesthetized mice at intervals indicated in the Figures were used for blood glucose measurements and determination of plasma insulin as previously described. Blood glucose was measured using a hand-held Ascencia Contour meter (Bayer Healthcare, UK). Plasma and pancreatic insulin were determined by radioimmunoassay. Plasma and pancreatic glucagon contents were determined by ELISA using commercially available kit (Millipore, MA, USA). Plasma creatinine, alanine transaminase (ALT), aspartic acid transaminase (AST) and alkaline phosphatase (ALP) were measured using commercially available kits (Randox Laboratories, UK) as indicators of renal and liver function. Plasma triglyceride and cholesterol concentrations were measured using an automated clinical chemistry analyser (I-lab 650, and reagents purchased from Instrumentation Laboratory (Warrington, UK). The assay kit for cholesterol was obtained from Randox Laboratories (Antrim, UK). Estimation of LDL cholesterol concentrations was achieved using the Friedewald equation as described previously.
# [2] = test system: BRIN-BD11 cells; assay: Intracellular calcium ([Ca2+]i), FLIPR calcium assay kit; assay type: cell-based, rat; settings: 1 μM peptide, 5 min; mean ± SEM, n = 8
# Procedure: (§3) Effects of esculentin-2CHa (1 μM) and its analogues on membrane potential and [Ca^2+]i in BRIN-BD11 cells over a period of 5 min were assessed using commercially available FLIPR membrane or calcium assay kit (Molecular Devices, USA) as previously described. Data were captured using a Flexstation 3 microplate reader equipped with automatic fluid transfer unit (Molecular Devices, USA).
# [3] = test system: BRIN-BD11 cells; settings: 3 μM peptide (highest concentration); mean ± SEM, n = 8
# Procedure: In vitro insulin-releasing effects of esculentin-2CHa and its analogues were assessed using BRIN-BD11 rat clonal β-cells and mouse islets. In the first set of experiments, BRIN-BD11 cells were incubated with the peptides in the concentration range (1 pM– 3 μM) in Krebs-Ringer bicarbonate buffer containing 5.6 mM glucose for 20 min at 37°C as previously described. Insulin-releasing effects were also assessed using buffer supplemented with 1.4 and 16.7mm glucose concentrations and with established modulators of insulin release as previously described. In a second set of experiments, islets from NIH Swiss mice, isolated by collagenase digestion, were incubated with a range of concentrations of esculentin-2CHa or its analogues (0.1 nM– 1 μM) for 1 h in Krebs-Ringer bicarbonate (KRB) buffer supplemented with 1.4, 5.6 or 16.7 mM glucose. Following test incubations, aliquots of buffer were retrieved and stored at -20°C for measurement of insulin by radioimmunoassay. In the experiments with BRIN-BD11 cells, the release of lactate dehydrogenase (LDH) was measured as an indicator of the integrity of the plasma membrane using commercially available CytoTox 96 non-radioactive cytotoxicity assay kit (Promega, Madison, WI, USA) according to the manufacturer’s recommended protocol.
# [4] = test system: BRIN-BD11 rat clonal β-cells; assay: In vitro insulin release from BRIN-BD11 cells; assay type: cell-based; settings: 5.6 mM glucose
# Procedure: (§4) In vitro insulin-releasing effects of esculentin-2CHa and its analogues were assessed using BRIN-BD11 rat clonal β-cells and mouse islets. In the first set of experiments, BRIN-BD11 cells were incubated with the peptides in the concentration range (1 pM– 3 μM) in Krebs-Ringer bicarbonate buffer containing 5.6 mM glucose for 20 min at 37°C as previously described [15–17]. Insulin-releasing effects were also assessed using buffer supplemented with 1.4 and 16.7mm glucose concentrations and with established modulators of insulin release as previously described [15–17]. In a second set of experiments, islets from NIH Swiss mice, isolated by collagenase digestion [18, 19], were incubated with a range of concentrations of esculentin-2CHa or its analogues (0.1 nM– 1 μM) for 1 h in Krebs-Ringer bicarbonate (KRB) buffer supplemented with 1.4, 5.6 or 16.7 mM glucose. Following test incubations, aliquots of buffer were retrieved and stored at -20°C for measurement of insulin by radioimmunoassay [20].
# [5] = test system: islets from NIH Swiss mice; assay: In vitro insulin release from isolated mouse islets; assay type: cell-based; settings: 16.7 mM glucose
# Procedure: as §4
# [6] = test system: high fat fed mice; assay: Longer-term (28 day) in vivo study; set-up: species or system mouse; Reduction of pancreatic glucagon / Reduction of plasma glucagon / Reduction of total islet area / Reduction of beta cell area / Reduction of alpha cell area: concentration or dose not given beside the values
# Procedure: as §1
# High-fat fed mice with clearly manifested features of obesity and hyperglycaemia received twice daily injections of either saline vehicle (0.9% (w/v) (high fat fed controls) or [L28K]esculentin-2CHa (75 nmol/kg body weight) for 28 days. This peptide was chosen based on its potent in vitro and acute in vivo actions. Mice (n = 8) fed standard rodent diet and injected with saline were used as lean controls. Energy intake, bodyweight, non-fasting blood glucose and plasma insulin concentrations were monitored every 72 h throughout the duration of the study. At the end of the 28 day treatment period, glucose tolerance (18 mmol/kg body weight, intraperitoneal or oral, overnight fasted) and insulin sensitivity (25 U/kg body weight) were assessed as previously described. Indirect calorimetry and energy expenditure in treated and control mice were measured using the Comprehensive Laboratory Animal Monitoring System (CLAMS) metabolic chambers (Columbus Instruments, Columbus, OH, USA). Total body lean and fat mass, bone mineral density and bone mineral content were also measured using DXA scanning (Piximus Densitometer, USA). Improvement in beta cell function in [L28K]esculentin-2CHa-treated and control mice were evaluated from the insulin secretory responses of islets isolated from these animals to established insulin secretagogues and incretin hormones (16.7 mM glucose, 1 μM GLP-1, 1 μM GIP, 10 mM alanine, 10 mM arginine and 30 mM KCl). Changes in islet morphology were assessed using pancreatic tissues excised from mice treated with [L28K]esculentin-2CHa or saline for 28 days as previously described.
# as §2
# [7] = test system: BRIN-BD11 cells; assay: Membrane potential, FLIPR membrane assay kit; assay type: cell-based, rat; settings: 1 μM peptide, 5 min; mean ± SEM, n = 8
# Procedure: as §3
# [8] = ip glucose 18 mmol/kg with peptide 75 nmol/kg, AUC 0-60 min, mean ± SEM, n = 8
# [9] = peptide 75 nmol/kg ip with glucose 18 mmol/kg
# [10] = 75 nmol/kg twice daily, 28 days
# [11] = after 28 days treatment, ip glucose 18 mmol/kg
# [12] = after 28 days treatment, oral glucose 18 mmol/kg
sequence,measurement,setting,value
"GFSSIFRGVAKFASKGLGKDLAKLGVDKVACKISKQC (disulfide 31-37 (inferred)) [[L28K]Esculentin-2CHa, substituted analogue of esculentin-2CHa chosen for 28 day study]",Plasma glucose (AUC),[1]; [8],"327.61±36.87 ^, Δ mmol/l.min"
same,Plasma insulin (AUC),[1]; [8],"262.81±30.56 ^,ΔΔΔ ng/ml.min"
same,Decrease of plasma glucose AUC versus glucose alone,[1]; [9],52%
same,Stimulation of insulin response relative to that with esculentin-2CHa,[1]; [9],2.8 fold
same,"Intracellular Ca2+ (AUC, x 10^2 RFU)",[2],7.28±0.94 x 10^2 RFU
same,LDH release (% of control),[3],101.8±1.5 % of control
same,Stimulatory effect on insulin release at 3 μM compared with native peptide,[4]; 3 μM,greater
same,BRIN-BD11 cells (Threshold concentration),"[4]; minimum concentration producing a significant increase in rate of insulin release, 20 min, 37°C, n = 8",10 pM
same,"Stimulation of insulin release from islets, fold of basal","[5]; 1 μM, 1 h",3.4 fold
same,Mouse islets (Threshold concentration),"[5]; insulin release, 1 h incubation, n = 8",1 nM
same,Body weight,[6]; [10],did not affect
same,Food intake,[6]; [10],did not affect
same,Increase in non-fasting plasma insulin versus saline-treated controls,[6]; [10],42%
same,Reduction in non-fasting plasma glucose versus saline-treated controls,[6]; [10],25%
same,Adverse effects,[6]; 28 days treatment,no adverse effects were observed
same,Decrease in plasma creatinine,[6]; 28 days treatment,40%
same,Number of islets per mm^2 of pancreas,[6]; 28 days treatment,did not affect
same,Plasma HDL cholesterol,[6]; 28 days treatment,no effect
same,Plasma triglycerides,[6]; 28 days treatment,decreased
same,Reduction of alpha cell area,[6]; 28 days treatment,48%
same,Reduction of beta cell area,[6]; 28 days treatment,43%
same,Reduction of total islet area,[6]; 28 days treatment,44%
same,Total pancreatic insulin content (greater in high fat fed mice),[6]; 28 days treatment,reversed
same,"O2 consumption, CO2 production, energy expenditure and respiratory exchange ratio","[6]; 28 days treatment, CLAMS metabolic chambers",not affected
same,Bone area,"[6]; 28 days treatment, DXA",reversed the loss
same,Reduction of pancreatic glucagon,"[6]; 28 days treatment, ELISA",20%
same,Reduction of plasma glucagon,"[6]; 28 days treatment, ELISA",35%
same,Insulin sensitivity,"[6]; after 28 days treatment, insulin 25 U/kg ip",no significant effect
same,"Improvement of glucose AUC 0–60 min, intraperitoneal glucose tolerance",[6]; [11],20%
same,"Improvement of insulin AUC 0–60 min, intraperitoneal glucose",[6]; [11],66%
same,Improvement of glycaemic excursion following oral glucose,[6]; [12],23%
same,Improvement of insulin response following oral glucose,[6]; [12],68%
same,Insulin-secretory responses of isolated islets to secretagogues,"[6]; islets from mice treated 28 days, glucose, GLP-1, GIP, alanine, arginine, KCl",restored
same,"Membrane potential (AUC, x 10^3 RFU)",[7],7.78±0.22 x 10^3 RFU
